ChEMBL document CHEMBL3272144, “Application of the Free-Wilson technique to structurally related series of homologues. Quantitative structure-activity relationship studies of narcotic analgetics” (1977)

Species: Mus musculus
Assay: Analgesic activity in mouse by hot-plate method
Assay type: functional

Row | SMILES | log(1/C)
1 | CC[C@@]1(O)C2Cc3ccc(OC)cc3[C@@]1(C)CCN2C (mixture of isomers) | 1.87
2 | CC(=O)Oc1ccc2c(c1)[C@@]1(C)CCN(C)C(C2)[C@]1(C)OC(C)=O (mixture of isomers) | 2.66
3 | CN1CC[C@]2(C)c3ccccc3CC1[C@]2(C)O (mixture of isomers) | 1.16
4 | CC(=O)Oc1ccc2c(c1)[C@H]1CCN(C)C(C2)C1 (mixture of isomers) | 1.57
5 | CC[C@@H]1C2Cc3ccc(O)cc3[C@@]1(C)CCN2C (mixture of isomers) | 3.07
6 | CC[C@H]1C2Cc3ccc(O)cc3[C@@]1(C)CCN2C (stereo in doubt; 21) | 2.62
7 | CC[C@@]12CCN(C)C(Cc3ccc(O)cc31)[C@@]2(C)O (mixture of isomers) | 2.61
8 | C[C@H]1C2Cc3ccc(OC(=O)c4cccnc4)cc3[C@@]1(C)CCN2CCc1ccccc1 | 3.68
9 | C[C@H]1C2Cc3ccc(O)cc3[C@@]1(C)CCN2C | 2.71
10 | COc1ccc2c(c1)[C@@]1(C)CCN(C)C(C2)[C@@H]1C | 1.87
11 | CN1CC[C@]2(C)c3ccccc3CC1[C@@H]2O (mixture of isomers) | 0.97
12 | COc1ccc2c(c1)[C@@]1(c3ccccc3)CCN(C)C(C2)[C@H]1C | 2.14
13 | CCCC(=O)Oc1ccc2c(c1)[C@@]1(C)CCN(C)C(C2)C1 (mixture of isomers) | 1.92
14 | CCC[C@@]12CCN(C)C(Cc3ccc(O)cc31)[C@@H]2C (stereo in doubt; 25) | 2.57
15 | CC[C@@]12CCN(C)C(Cc3ccc(O)cc31)C2 (stereo in doubt; 20) | 2.62
16 | CCC[C@@]12CCN(C)C(Cc3ccc(O)cc31)C2 (mixture of isomers) | 2.43
17 | CC[C@H]1C2Cc3ccc(O)cc3[C@@]1(CC)CCN2CCc1ccccc1 (mixture of isomers) | 2.61
18 | C[C@@H]1C2Cc3ccccc3[C@@]1(C)CCN2C (mixture of isomers) | 1.82
19 | COc1ccc2c(c1)[C@@]1(C)CCN(CCc3ccccc3)C(C2)[C@@H]1O (mixture of isomers) | 1.58
20 | CC(=O)Oc1ccc2c(c1)[C@@]1(C)CCN(CCc3ccccc3)C(C2)[C@@H]1C (mixture of isomers) | 3.61
21 | COc1ccc2c(c1)[C@@]1(C)CCN(C)C(C2)[C@H]1O (mixture of isomers) | 1.14
22 | CC[C@H]1C2Cc3ccc(O)cc3[C@@]1(C)CCN2C (stereo in doubt; 97) | 1.2
23 | CN1CC[C@@]2(c3ccccc3)CC1Cc1ccccc12 (stereo in doubt; 89) | 1.87
24 | C[C@H]1C2Cc3ccccc3[C@@]1(C)CCN2C (mixture of isomers) | 1.27
25 | CCC(=O)O[C@@]12CCN(C)C(Cc3ccccc31)C2 (mixture of isomers) | 1.43
26 | COc1ccc2c(c1)[C@@]1(C)CCN(C)C(C2)C1 (mixture of isomers) | 1.64
27 | CC[C@@]12CCN(C)C(Cc3ccc(O)cc31)[C@]2(C)OC(C)=O (mixture of isomers) | 2.78
28 | C[C@H]1C2Cc3ccccc3[C@@]1(O)CCN2C (mixture of isomers) | 0.75

Row | SMILES | log(1/C)
29 | CCC[C@@H]1C2Cc3ccc(O)cc3[C@@]1(CCC)CCN2C (mixture of isomers) | 2.88
30 | CC[C@H]1C2Cc3ccc(OC(=O)c4cccnc4)cc3[C@@]1(CC)CCN2C (mixture of isomers) | 1.54
31 | CN1CC[C@@]2(C)CC1Cc1ccc(O)cc12 (stereo in doubt; 98) | 1.04
32 | CN1CC[C@@H]2c3cc(O)ccc3CC1[C@H]2CO (mixture of isomers) | 1.62
33 | CC[C@@]12CCN(C)C(Cc3ccc(OC(C)=O)cc31)[C@@H]2OC(C)=O (mixture of isomers) | 2.53
34 | CCCCCC[C@@]12CCN(C)C(Cc3ccc(O)cc31)[C@H]2CO (mixture of isomers) | 1.53
35 | CC[C@@]12CCN(C)C(Cc3ccc(O)cc31)[C@H]2C | 3.92
36 | CC[C@H]1C2Cc3ccc(OC)cc3[C@@]1(CC)CCN2C (stereo in doubt; 91) | 1.62
37 | CCCCC(=O)Oc1ccc2c(c1)[C@@]1(c3ccccc3)CCN(C)C(C2)[C@H]1C | 2.78
38 | CCCC[C@@]12CCN(C)C(Cc3ccc(O)cc31)C2 (mixture of isomers) | 2.17
39 | CN1CC[C@@]2(c3ccccc3)CC1Cc1ccccc12 (stereo in doubt; 44) | 1.77
40 | C[C@H]1C2Cc3ccc(OC(=O)c4cccnc4)cc3[C@@]1(C)CCN2CC1CC1 (mixture of isomers) | 2.59
41 | CC[C@H]1C2Cc3ccc(OC(C)=O)cc3[C@@]1(CC)CCN2C (mixture of isomers) | 2.36
42 | CC(=O)Oc1ccc2c(c1)[C@@]1(C)CCN(CCC(=O)c3ccccc3)C(C2)[C@@H]1C (mixture of isomers) | 2.49
43 | C[C@@H]1C2Cc3ccc(O)cc3[C@@]1(c1ccccc1)CCN2C (stereo in doubt; 8) | 3.26
44 | CCC(=O)Oc1ccc2c(c1)[C@@]1(C)CCN(C)C(C2)C1 (mixture of isomers) | 1.98
45 | C[C@@]12CCN(CCc3ccccc3)C(Cc3ccc(O)cc31)[C@@H]2O (mixture of isomers) | 2.99
46 | C[C@@H]1C2CCN(CCc3ccccc3)C1Cc1ccc(O)cc12 (mixture of isomers) | 3.21
47 | C[C@H]1C2Cc3ccc(O)cc3[C@@]1(C)CCN2CCc1ccccc1 (stereo in doubt; 2) | 3.83
48 | C[C@H]1C2Cc3ccc(O)cc3[C@@]1(C)CCN2CCc1ccccc1 (stereo in doubt; 87) | 2.05
49 | CN1CC[C@]2(C)c3cc(O)ccc3CC1[C@@H]2O (mixture of isomers) | 0.9
50 | CCC[C@@]12CCN(CCc3ccccc3)C(Cc3ccc(O)cc31)[C@@H]2C (mixture of isomers) | 2.92
51 | CN1CC[C@H]2CC1Cc1ccc(O)cc12 (stereo in doubt; 46) | 1.72
52 | C=CC#CCN1CC[C@]2(CC)c3cc(O)ccc3CC1[C@@H]2CC (stereo in doubt; 90) | 1.79
53 | COc1ccc2c(c1)[C@@]1(C)CCN(C)C(C2)[C@]1(C)O (mixture of isomers) | 1.65
54 | CCC[C@@]12CCN(C)C(Cc3ccc(O)cc31)[C@H]2C (mixture of isomers) | 3.45
55 | C[C@H]1[C@H]2Cc3ccc(O)cc3[C@@]1(C)CCN2CC1CC1 (racemic) | 1.37
